Where two headings read alike, the source gives them in different places. One block for each compound: values may come before it.
Key:
hESC-CMs [1] = test: α-actinin immunostaining for sarcomeric integrity; assay type: cell-based, human
Procedure: hESC-CMs were permeabilized using 0.1% Triton X-100 (Thermo Fisher Scientific, USA). After permeabilizing for 15 minutes, cells were washed three times in PBS, and further permeabilization was blocked by incubating cells in PBS with 10% FBS (Hyclone, USA) for 1 hour at room temperature. Cells were incubated with the primary anti-actinin antibody (1:400) (Abcam, UK) and diluted in PBS with 10% FBS overnight. Cells were then washed three times with PBS and incubated with a goat anti-mouse IgG1 secondary antibody (1:1000 diluted in PBS with 10% FBS) (Thermo Fisher Scientific, USA) for 1 hour at room temperature. Finally, cells were washed twice with PBS and mounted using ibidi mounting medium with DAPI (Ibidi, Germany). Microscopic images were acquired using the DMi8s Research Inverted Thunder Imager Live Cell System (Leica, Germany) at 20×, 40×, and 100× magnification.

C57BL/6J male mice [2] = details: mouse, in vivo
Procedure: (§1) Recombinant human GDF15/MIC-1 protein (CHO-derived) was purchased from PeproTech Inc. (Cranbury, USA) and described in Example 1. […] For in vitro studies, solid lyophilized powder of these two drugs were solubilized at the recommended concentrations in sterile water, and separate aliquots were made and frozen until thawing prior to addition to cell cultures. For in vivo studies, all agents were dissolved in […] normal saline according to the required concentrations (doxorubicin, 5 mg/kg; GDF15, 0.5 mg/kg; dexrazoxane, […]), and the final volume of each intraperitoneal injection was 100 μl. The recommended dose ratio of dexrazoxane to doxorubicin was 10 to 1. In the following examples, 5 mg/kg of doxorubicin was used which correspond to 50 mg/kg of dexrazoxane. The FDA recommends that dexrazoxane be injected within 0.5 hour prior to doxorubicin infusion in individuals. This was followed in the same manner when applying to the test animals.
The body weight of each mouse was recorded weekly, before each doxorubicin injection and before sacrifice. At the end of experiment, all mice were euthanized with sodium pentobarbital 100 mg/kg administered intraperitoneally, and the hearts were excised immediately. The tibia of the mice were carefully dissected and its length was measured. […]

[3] = cancer survivors exposed to >250 mg/m2 doxorubicin vs. non-exposed; cited from earlier work
hESC-CMs [4] = test: Nuclear condensation by Hoechst 33342 stain (cardiomyocyte apoptosis); assay type: cell-based, human
Procedure: To evaluate mitochondrial morphology as a surrogate of cell and mitochondrial viability, hESC-CMs were incubated in B27+/RPMI−1640 media containing 50 nmol/L MitoTracker Deep Red (MTDR) (Thermo Fisher Scientific, USA), and 1 μg/ml Hoechst 33342 (Thermo Fisher Scientific, USA) for 20 minutes. Microscopic images were acquired using DMi8s Research Inverted Thunder Imager Live Cell System (Leica, Germany). For MTDR and Hoechst 33342 imaging, excitation wavelengths of […] and 480 nm, respectively, were used. Mitochondrial morphology was classified into three categories: i) elongated, ii) punctate, and iii) perinuclear. Nuclear morphology was classified as either condensed or normal.

C57BL/6J male mice [5] = assay type: in vivo, mouse
Procedure: as §1
To induce cardiotoxicity in the mouse, four weekly intraperitoneal injections of doxorubicin at 5 mg/kg were administered. After one dose of doxorubicin at 5-6 mg/kg in a mouse, the level of exposure has been estimated to be similar to that of a human individual being given a standard dose of doxorubicin at approximately 60 mg/m^2. […]
The image processing and analysis software, ImageJ version 1.53K, was used for evaluation of histopathology from mouse experiments. For Masson's trichrome staining, the acquired images were converted from color to grayscale using ImageJ, the blue-stained collagen were segmented (separated) using thresholding, and the threshold areas in a representative microscopic field were quantified. […] Cells containing brown staining (TUNEL-positive cells) were counted in a representative microscopic field for each mouse in each group.

heart weight-to-tibia length ratio (C57BL/6J male mice [2]): decrease
Compound: COc1cccc2c1C(=O)c1c(O)c3c(c(O)c1C2=O)C[C@@](O)(C(=O)CO)C[C@@H]3OC1C[C@H](N)[C@H](O)[C@H](C)O1.Cl (stereo partly drawn) [Dox, (8S,10S)-10-[(3-Amino-2,3,6-trideoxy-L-lyxohexopyranosyl)oxy]-7,8,9,10-tetrahydro-6,8,11-trihydroxy-8-(hydroxyacetyl)-1-methoxynaphthacene-5,12-dione hydrochloride, reference compound]
sarcomere structure (α-actinin immunostaining) (hESC-CMs [1]; hESC-CMs exposed to Dox alone): considerable disruption of sarcomere structure and nuclear condensation | hazard ratio for developing heart failure [3]: 8.6 | hESC-CMs displaying nuclear condensation (hESC-CMs [4]; doxorubicin-treated, no pretreatment): > 40% | cardiac fibrosis (Masson's trichrome) (C57BL/6J male mice [5]; mouse, in vivo): diffuse myocardial interstitial fibrosis as well as perivascular fibrosis

Compound: GDF15: commercially available recombinant human GDF-15 protein (PeproTech 120-28C), CHO cell-derived, SEQ ID NO: 1
sarcomere structure (α-actinin immunostaining) (hESC-CMs [1]; hESC-CMs, agent only, no doxorubicin): well-organized, striated sarcomeres | sarcomeric damage (α-actinin immunostaining) (hESC-CMs [1]; hESC-CMs, pretreatment preceding doxorubicin): sarcomeric damage was evidently attenuated | extent of nuclear condensation compared with dexrazoxane (hESC-CMs [4]; hESC-CMs, pretreatment in the presence of Dox): performed similarly to dexrazoxane | hESC-CMs displaying nuclear condensation (hESC-CMs [4]; pretreated with 300 ng/ml GDF15, then doxorubicin): 12.8±1.7% | cardiac fibrosis (Masson's trichrome) (C57BL/6J male mice [5]; mice, pretreatment before doxorubicin, versus doxorubicin only): visually and quantitatively reduced

From patent publication US12209112B2, “Methods of preventing or treating diseases, conditions, or disorders associated with chemotherapy” (The Chinese University of Hong Kong, priority 2022, dated 2025)
